Experimental data published in article PMC3183052, “Immunoprotectivity of HLA-A2 CTL Peptides Derived from Respiratory Syncytial Virus Fusion Protein in HLA-A2 Transgenic Mouse” (PLoS ONE, 2011).
“Also recorded” adds a separate entry of the source.

Tested on: RSV-B1
Experiment: Lung viral load after live RSV challenge (real-time RT-PCR of RSV N gene)
Type: in vivo, HLA-A*0201 transgenic C57BL/6 mice
Conditions: two s.c. doses of 50 µg peptide in IFA, challenge i.n. 1×10^7 pfu live RSV-B1, day 4 post-infection; 10 mice per group; vehicle mean = 0.95
Protocol: To screen the immunodominance of epitopic peptide in the induction of RSV-F specific Th1/Th2 expression, HLA-A*0201 transgenic C57BL/6 mice were anesthetized with isoflurane and immunized with 1×10^7 pfu/50 µL of rAd-F0 or rAd-LacZ or 1×10^4 live RSV B1 via the intranasal (i.n.) route. Twenty days later, the mice were given booster immunization i.n. with the same dose. After 10 days of boost, mice were sacrificed and splenocytes were isolated for the cytokine ELISPOT assay. […] Mice body weight was monitored daily.
Lung RNA (5 µg) was mixed with 10 nmole random primers and 2 units of […] reverse transcriptase (Invitrogen) and incubated at 94°C for 10 minutes, 37°C for 30 minutes, and then at 4°C. The resulting cDNA was subjected to quantitative PCR analysis (The LightCycler® 480 Real-Time PCR system) with RSV N specific primer pairs, forward: 5′-[…]-3′ and reverse: 5′-[…]-3′. Expression of mouse GAPDH gene in the tested samples was detected as internal control by using specific primer pairs, forward: 5′-[…]-3′ and reverse: 5′-[…]-3′. The number of cycles (Ct) required for the amplification of the N gene and GAPDH was calculated. The relative expression of the N gene was calculated as followed: the individual Ct (RSV N) obtained from peptide- or vehicle-immunized lung was normalized by the respective Ct (GAPDH), and then [drawing 3] was divided by the mean of [drawing 4] . […]

YMLTNSELL [peptide 14, HLA-A*0201-restricted 9-mer synthetic peptide from F protein of RSV-B1 strain]
expression of RSV N gene in the lungs (relative, normalized to GAPDH), mean: no significant reduction; also recorded: reduced lung viral load only marginally
